In ChEMBL document CHEMBL1201862, “PubChem BioAssay data set” (2004):
Several values for one entry are separate records, joined by “and”; a condition that tells them apart may be missing. Equal entries are not always repeated.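 Following 48 hours of exposure in 96-well plates, responses at five concentrations were used to interpolate endpoints linearly. GI50: concentration for 50% inhibition of growth.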 Activity calls are given as the source filed them. Rule as the data show it: active = GI50 up to about 1.1 µM and inactive = higher.

Experiments:
Assay in all cases: DTP human tumour cell line panel, 48 h
[1] = system: DMS-273
[2] = system: COLO 205
[3] = system: MDA-N
[4] = system: DLD-1
[5] = system: RXF 631
[6] = system: XF498
[7] = system: SNB-78
[8] = system: Malme-3M
[9] = system: HL-60
[10] = system: SW-620
[11] = system: NCI-H460
[12] = system: HOP-18
[13] = system: SK-MEL-28
[14] = system: OVCAR-5
[15] = system: A498
[16] = system: CAKI-1
[17] = system: MCF7
[18] = system: KM-20L2
[19] = system: 786-0
[20] = system: PC-3
[21] = system: SR
[22] = system: DMS-114
[23] = system: Hs-578T
[24] = system: LOX IMVI
[25] = system: MOLT-4
[26] = system: CCRF-CEM
[27] = system: LXFL 529
[28] = system: HCC 2998
[29] = system: M19-MEL
[30] = system: NCI-H226
[31] = system: SF-539
[32] = system: NCI/ADR-RES
[33] = system: HCT-15
[34] = system: UO-31
[35] = system: K562
[36] = system: EKVX
[37] = system: SK-MEL-5
[38] = system: NCI-H23
[39] = system: SNB-19
[40] = system: HOP-62
[41] = system: TK-10
[42] = system: SF-268
[43] = system: OVCAR-4
[44] = system: ACHN
[45] = system: M14
[46] = system: HOP-92
[47] = system: UACC-62
[48] = system: SK-OV-3
[49] = system: NCI-H522
[50] = system: RPMI-8226
[51] = system: SNB-75
[52] = system: OVCAR-8
[53] = system: HT-29
[54] = system: KM12
[55] = system: SF-295
[56] = system: SN12C
[57] = system: HCT-116
[58] = system: IGROV-1
[59] = system: OVCAR-3
[60] = system: A549
[61] = system: UACC-257
[62] = system: U-251
[63] = system: RXF 393
[64] = system: SK-MEL-2

COc1cccc2c1C(=O)c1c(O)c3c(c(O)c1C2=O)C[C@@](O)(C(C)=O)C[C@@H]3OC1CC(N)C(O)C(C)O1 (stereo partly specified)
GI50 [1]: 0.0889 µM (active)
GI50 [2]: 156 nM (active) and 142 nM (active)
GI50 [3]: 168 nM (active) and 98.9 nM (active)
GI50 [4]: 0.309 µM (active)
GI50 [5]: 0.115 µM (active)
GI50 [6]: 0.069 µM (active)
GI50 [7]: 0.292 µM (active)
GI50 [8]: 30.3 nM (active) and 54.3 nM (active)
GI50 [9]: < 11.4 nM (active) and 12.3 nM (active)
GI50 [10]: < 16.7 nM (active) and 22.9 nM (active)
GI50 [11]: < 10 nM (active) and 5.94 nM (active)
GI50 [12]: 0.118 µM (active)
GI50 [13]: 167 nM (active) and 303 nM (active)
GI50 [14]: 201 nM (active) and 238 nM (active)
GI50 [15]: 146 nM (active) and 197 nM (active)
GI50 [16]: 81.8 nM (active) and 99.1 nM (active)
GI50 [17]: 0.00889 µM (active)
GI50 [18]: 0.194 µM (active)
GI50 [19]: < 17.8 nM (active) and 32.6 nM (active)
GI50 [20]: 48 nM (active) and 78.9 nM (active)
GI50 [21]: 8.39 nM (active) and < 13.5 nM (active)
GI50 [22]: 0.0371 µM (active)
GI50 [23]: 168 nM (active) and 192 nM (active)
GI50 [24]: < 13.1 nM (active) and 24.9 nM (active)
GI50 [25]: < 10 nM (active) and 6.34 nM (active)
GI50 [26]: < 10 nM (active) and 12.8 nM (active)
GI50 [27]: 0.0743 µM (active)
GI50 [28]: 154 nM (active) and 167 nM (active)
GI50 [29]: 0.08 µM (active)
GI50 [30]: 24 nM (active) and 34.6 nM (active)
GI50 [31]: 39.1 nM (active) and 48.3 nM (active)
GI50 [32]: 2.42 µM (inactive) and 4.61 µM (inactive)
GI50 [33]: 0.721 µM and 0.689 µM
GI50 [34]: 412 nM (active) and 413 nM (active)

CN(C)CC(=O)N1CCc2c([nH]c3ccccc23)C1c1cccnc1 (stereo unspecified)
GI50 [1]: 0.0187 µM (active)
GI50 [35]: > 100 µM (inactive)
GI50 [4]: > 100 µM (inactive)
GI50 [5]: > 100 µM (inactive)
GI50 [6]: > 100 µM (inactive)
GI50 [36]: > 100 µM (inactive)
GI50 [7]: > 100 µM (inactive)
GI50 [9]: > 100 µM (inactive)
GI50 [10]: > 100 µM (inactive)
GI50 [11]: > 100 µM (inactive)
GI50 [12]: > 100 µM (inactive)
GI50 [13]: > 100 µM (inactive)
GI50 [14]: > 100 µM (inactive)
GI50 [37]: > 100 µM (inactive)
GI50 [38]: > 100 µM (inactive)
GI50 [15]: > 100 µM (inactive)
GI50 [39]: > 100 µM (inactive)
GI50 [16]: > 100 µM (inactive)
GI50 [40]: > 100 µM (inactive)
GI50 [41]: > 100 µM (inactive)
GI50 [42]: > 100 µM (inactive)
GI50 [43]: > 100 µM (inactive)
GI50 [44]: > 100 µM (inactive)
GI50 [45]: > 100 µM (inactive)
GI50 [46]: 26.9 µM (inactive)
GI50 [18]: > 100 µM (inactive)
GI50 [19]: > 100 µM (inactive)
GI50 [47]: > 100 µM (inactive)
GI50 [21]: > 100 µM (inactive)
GI50 [48]: > 100 µM (inactive)
GI50 [49]: > 100 µM (inactive)
GI50 [22]: > 100 µM (inactive)
GI50 [24]: > 100 µM (inactive)
GI50 [50]: > 100 µM (inactive)
GI50 [51]: 65 µM (inactive)
GI50 [25]: > 100 µM (inactive)
GI50 [52]: > 100 µM (inactive)
GI50 [26]: > 100 µM (inactive)
GI50 [53]: > 100 µM (inactive)
GI50 [27]: > 100 µM (inactive)
GI50 [54]: > 100 µM (inactive)
GI50 [55]: 0.0498 µM (active)
GI50 [56]: > 100 µM (inactive)
GI50 [57]: > 100 µM (inactive)
GI50 [58]: > 100 µM (inactive)
GI50 [59]: > 100 µM (inactive)
GI50 [28]: > 100 µM (inactive)
GI50 [29]: > 100 µM (inactive)
GI50 [31]: > 100 µM (inactive)
GI50 [33]: > 100 µM
GI50 [60]: > 100 µM (inactive)
GI50 [34]: 22.5 µM (inactive)
GI50 [61]: > 100 µM (inactive)
GI50 [62]: > 100 µM (inactive)

COc1ccc2nc(C(=O)c3ccccc3)c(C)cc2c1
GI50 [1]: 3.08 µM (inactive)
GI50 [35]: 0.859 µM (active)
GI50 [2]: 5.93 µM (inactive)
GI50 [4]: 4.84 µM (inactive)
GI50 [5]: 8.18 µM (inactive)
GI50 [6]: 3.68 µM (inactive)
GI50 [36]: 5.26 µM (inactive)
GI50 [7]: 13.2 µM (inactive)
GI50 [8]: 2.94 µM (inactive)
GI50 [9]: 3.38 µM (inactive)
GI50 [10]: 2.81 µM (inactive)
GI50 [11]: 7.24 µM (inactive)
GI50 [12]: > 26.9 µM (inactive)
GI50 [63]: 2.7 µM (inactive)
GI50 [13]: 3.91 µM (inactive)
GI50 [14]: 33.9 µM (inactive)
GI50 [37]: 3.15 µM (inactive)
GI50 [38]: 3.71 µM (inactive)
GI50 [15]: 2.74 µM (inactive)
GI50 [39]: 9.16 µM (inactive)
GI50 [16]: 7.91 µM (inactive)
GI50 [40]: 6.47 µM (inactive)
GI50 [41]: 11.1 µM (inactive)
GI50 [42]: 6.76 µM (inactive)
GI50 [43]: 97.1 µM (inactive)
GI50 [64]: 6.27 µM (inactive)
GI50 [44]: 10 µM (inactive)
GI50 [45]: 3.74 µM (inactive)
GI50 [46]: 7.13 µM (inactive)
GI50 [18]: 3.18 µM (inactive)
GI50 [19]: 7.03 µM (inactive)
GI50 [47]: 5.26 µM (inactive)
GI50 [21]: 2.81 µM (inactive)
GI50 [48]: 3.83 µM (inactive)
GI50 [49]: 1.88 µM (inactive)
GI50 [22]: 3.22 µM (inactive)
GI50 [24]: 5.43 µM (inactive)
GI50 [50]: 6.61 µM (inactive)
GI50 [51]: 2.96 µM (inactive)
GI50 [25]: 5.02 µM (inactive)
GI50 [52]: 5.31 µM (inactive)
GI50 [26]: 4.2 µM (inactive)
GI50 [53]: 3.59 µM (inactive)
GI50 [27]: 9.25 µM (inactive)
GI50 [54]: 6.58 µM (inactive)
GI50 [55]: 2.81 µM (inactive)
GI50 [56]: 6.84 µM (inactive)
GI50 [57]: 4.63 µM (inactive)
GI50 [58]: > 29.2 µM (inactive)
GI50 [59]: 10.3 µM (inactive)
GI50 [28]: 6.01 µM (inactive)
GI50 [29]: 7.82 µM (inactive)
GI50 [30]: 23.9 µM (inactive)
GI50 [31]: 3.05 µM (inactive)
GI50 [33]: 3.3 µM
GI50 [60]: 6.28 µM (inactive)
GI50 [34]: 12.9 µM (inactive)
GI50 [61]: 4.14 µM (inactive)
GI50 [62]: 3.5 µM (inactive)

O=c1c(O)c(-c2ccc(O)c(O)c2)oc2cc(O)cc(O)c12 [QUERCETIN]
GI50 [1]: 49.7 µM (inactive)
GI50 [35]: 67.8 µM (inactive)
GI50 [2]: 33.6 µM (inactive)
GI50 [4]: 37.2 µM (inactive)
GI50 [5]: 38.1 µM (inactive)
GI50 [6]: 72.8 µM (inactive)
GI50 [36]: 41.2 µM (inactive)
GI50 [7]: > 100 µM (inactive)
GI50 [8]: > 100 µM (inactive)
GI50 [9]: 21 µM (inactive)
GI50 [10]: 20.3 µM (inactive)
GI50 [11]: 36.6 µM (inactive)
GI50 [12]: > 100 µM (inactive)
GI50 [63]: 55.7 µM (inactive)
GI50 [13]: 94.6 µM (inactive)
GI50 [14]: > 100 µM (inactive)
GI50 [37]: 92 µM (inactive)
GI50 [15]: > 100 µM (inactive)
GI50 [39]: 61.2 µM (inactive)
GI50 [16]: > 100 µM (inactive)
GI50 [40]: 46.1 µM (inactive)
GI50 [41]: > 100 µM (inactive)
GI50 [42]: 46.7 µM (inactive)
GI50 [43]: > 100 µM (inactive)
GI50 [64]: 88.5 µM (inactive)
GI50 [44]: > 100 µM (inactive)
GI50 [45]: > 100 µM (inactive)
GI50 [18]: 83.6 µM (inactive)
GI50 [19]: 59.8 µM (inactive)
GI50 [47]: 31.2 µM (inactive)
GI50 [21]: 35.5 µM (inactive)
GI50 [48]: 52.7 µM (inactive)
GI50 [49]: 84.3 µM (inactive)
GI50 [22]: 36.5 µM (inactive)
GI50 [24]: 18.9 µM (inactive)
GI50 [51]: 49 µM (inactive)
GI50 [25]: 76.9 µM (inactive)
GI50 [52]: 72.6 µM (inactive)
GI50 [26]: 30.8 µM (inactive)
GI50 [27]: > 100 µM (inactive)
GI50 [54]: 42.9 µM (inactive)
GI50 [55]: 50.7 µM (inactive)
GI50 [56]: > 100 µM (inactive)
GI50 [57]: 46.1 µM (inactive)
GI50 [58]: 59.3 µM (inactive)
GI50 [59]: > 100 µM (inactive)
GI50 [28]: > 100 µM (inactive)
GI50 [29]: 77.8 µM (inactive)
GI50 [31]: 47.5 µM (inactive)
GI50 [33]: 36.8 µM
GI50 [60]: > 100 µM (inactive)
GI50 [34]: 77.1 µM (inactive)
GI50 [61]: > 100 µM (inactive)
GI50 [62]: 49.7 µM (inactive)
